Assay results reported in US10683553B2, “Method for determining sensitivity to simultaneous inhibitor against PARP and Tankyrase” (THE ASAN FOUNDATION, priority 2015, dated 2020).

Assays:
Format in all cases: cell-based
[1] = system: LoVo human colon cancer cell line; assay: Trypan blue apoptosis with overexpressed mutant p53 or normal LIG4; conditions: 25 μM and 50 μM, 48 hours
Text: As in Example 12, in order to analyze the degree of apoptosis of Compound B, which is a novel PARP/Tankyrase simultaneous inhibitor, according to the expression of a mutant type p53 and a normal type LIG4 when the p53 genotype is a normal type and an LIG4 genotype is a mutant type, the present inventors treated a novel PARP/Tankyrase simultaneous inhibitor, Compound B, and the competitive drug PARP inhibitor, olaparib, while overexpressing the p53 mutant type and the LIG4 normal type in the LoVo human colon cancer cell line in which the p53 gene is a normal type and an LIG4 genotype is a mutant type. Then, the number of cells was measured by trypan blue staining assay to confirm the degree of apoptosis. The conditions and methods of the above experiment were the same as the methods of RKO cell culturing and transfection methods of Example 12. Compound B, which is a novel PARP/Tankyrase simultaneous inhibitor, and olaparib, which is a competitive drug PARP inhibitor, were treated with each of 25 μM and 50 μM. After 48 hours of culturing, the number of cells was measured by trypan blue staining assay and the degree of apoptosis was confirmed.

[2] = system: LoVo human colon cancer cell line; assay: Western blot of r-H2AX and cleaved caspase 3 with overexpressed mutant p53 or normal LIG4
Text: In order to analyze the degree of DNA damage and the degree of apoptosis of Compound B, which is a novel PARP/Tankyrase simultaneous inhibitor, according to the expression of a mutant type p53 and a normal type LIG4 when the p53 genotype is a normal type and an LIG4 genotype is a mutant type, the present inventors cultured and treated the LoVo human colon cancer cell line in which the p53 genotype is a normal type and an LIG4 genotype is a mutant type under the same condition as in Example 17.

[3] = system: HCT116 human colon cancer cell line; assay: Trypan blue apoptosis after siRNA knockdown of DNA repair genes; conditions: HCT116 p53 normal, LIG4 siRNA knockdown; 25 μM and 50 μM, 48 hours
Text: In order to analyze the degree of apoptosis of Compound A, which is a novel PARP/Tankyrase simultaneous inhibitor, depending on the presence or absence of the p53 gene and the presence or absence of the DNA repair gene, the present inventors reduced gene expression by an ATR, XLF, XRCC4 and LIG4 siRNA knockdown method known as a DNA repair gene in the human colon cancer cell line HCT116 in which the p53 normal gene is present, and then treated with Compound A, which is a novel PARP/Tankyrase simultaneous inhibitor. Then, the number of cells was measured by trypan blue staining assay to confirm the degree of apoptosis. As the experimental conditions and methods, the HCT116 p53 null human colon cancer cell line in which the p53 gene is normal and the HCT116 and p53 gene are deficient is cultured in RPMI1640 (10% FBS, 1% penicillin/streptomycin), and 1×10^5 per well was cultured at 37° C. for 24 hours in a 60 mm plate. ATR, XLF, XRCC4 and LIG4 (SEQ ID NO: 4; ATR siRNA 5′-GAGUUCUCAGAAGUCAACC-3′, SEQ ID NO: 5; XLF siRNA 5′-[…]-3′, SEQ ID NO: 6; XRCC4 siRNA 5′-[…]-3′, SEQ ID NO: 7; LIG4 siRNA 5′-GGGAGUGUCUCAUGUAAUA-3′) were infused into cells by means of Lipofectamin 2000 (Invitrogen), and knocked down at 37° C. for 48 hours. […] After 48 hours of culturing, the number of cells was measured by trypan blue staining and the degree of apoptosis was confirmed.

[4] = system: RKO human colon cancer cell line; assay: DNA damage by r-H2AX immunocytochemistry; conditions: RKO (p53 normal, LIG4 mutant); 50 μM, 48 hours
Text: In order to analyze the degree of DNA damage of Compound A, which is a novel PARP/Tankyrase simultaneous inhibitor, when the p53 gene is a normal type and the LIG4 gene is a mutant type, the present inventors treated a novel PARP/Tankyrase simultaneous inhibitor, Compound A, and the competitive drug PARP inhibitor, olaparib, in the RKO human colon cancer cell line in which the p53 gene is a normal type and the LIG4 gene is a mutant type, and the DNA damage was confirmed by the immunochemical method as the expression level of r-H2AX. The conditions and methods of the experiment were as follows: RKO human colon cancer cell line in which the p53 gene is a normal type and the LIG4 gene is a mutant type was cultured in RPMI1640 (10% FBS, 1% penicillin/streptomycin) and cultured in a 60 mm plate at 1×10^5 per well for 24 hours at 37° C. […] The r-H2AX antibody was diluted at a ratio of 1:100 in 1% BSA, reacted overnight at 4° C., washed three times for 10 minutes with TBS-T buffer, and the secondary antibody (Alexa Fluor®488 fitc) was diluted at a ratio of 1:100 in 1% BSA, reacted at room temperature for 2 hours, and then washed with TBS-T A buffer three times for 10 minutes, and stained with DAPI to confirm the expression level of r-H2AX under a fluorescence microscope.

[5] = LoVo overexpressing LIG4 normal type gene vs control group (empty)
[6] = LoVo overexpressing p53 mutant type gene vs control group (empty)

Row | Compound | degree of apoptosis (trypan blue cell count) [1, 5] | degree of apoptosis (trypan blue cell count) [1, 6] | expression amount of cleaved caspase 3 (western blot) [2, 5] | expression of r-H2AX (western blot) [2, 5] | expression amount of cleaved caspase 3 (western blot) [2, 6] | expression of r-H2AX (western blot) [2, 6] | degree of apoptosis (trypan blue cell count) [3] | DNA damage: expression level of r-H2AX (immunocytochemistry) [4]
1 | N#Cc1ccc(N2CCN(Cc3ccc4c5c(c(=O)[nH]c4c3)CCCN5)CC2)nc1 [Compound B, 6-{4-[(5-oxo-1,2,3,4,5,6-hexahydrobenzo[h][1,6]naphthyridin-8-yl)methyl]piperazin-1-yl}nicotinonitrile] | apoptosis was reduced | apoptosis was reduced | reduced | reduced | reduced | reduced | – | –
2 | CCOc1cc(CN(C)C)cc2[nH]c(=O)c3c(c12)NCCC3 [Compound A, 8-[(dimethylamino)methyl]-10-ethoxy-1,2,3,4-tetrahydrobenzo[h][1,6]naphthyridin-5(6H)-one] | – | – | – | – | – | – | apoptosis is significantly increased | expression of r-H2AX was increased
